Measured values: patent publication US8389544B2, “Isoquinolone compounds as subtype-selective agonists for melatonin receptors MT1 and MT2” (The Hong Kong University of Science and Technology, priority 2007, dated 2013)
Like-named read-outs stand apart in the source and are kept apart here.

Tests used:
MT2 receptor [1] = target: T1, MT2 receptor (Homo sapiens, UniProt P49286); experiment: CRE-Luc (luciferase reporter gene) assay, MT2; type: cell-based; set-up: expressed in transfected cells; conditions: HEK 293-pCREluc cells with MT2; inhibition of forskolin response
T1 sequence (P49286 1-362): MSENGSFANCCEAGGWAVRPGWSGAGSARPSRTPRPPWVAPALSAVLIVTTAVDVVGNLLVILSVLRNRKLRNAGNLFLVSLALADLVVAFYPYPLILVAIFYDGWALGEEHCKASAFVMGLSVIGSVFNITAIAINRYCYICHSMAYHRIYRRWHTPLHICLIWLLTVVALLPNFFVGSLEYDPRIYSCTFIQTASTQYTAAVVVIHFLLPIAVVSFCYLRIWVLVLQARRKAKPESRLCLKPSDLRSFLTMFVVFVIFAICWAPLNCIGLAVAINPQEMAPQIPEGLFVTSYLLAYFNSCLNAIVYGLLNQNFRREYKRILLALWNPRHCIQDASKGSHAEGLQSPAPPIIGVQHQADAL
Description: The luciferase reporter gene assay offers another way to measure melatonin receptor activation. Cells expressing cAMP-responsive element-driven luciferase reporter gene (293-pCREluc) and either the MT1 or MT2 receptor are treated with forskolin (a substance which stimulates cAMP production as well as the subsequent luciferase gene expression) alone or with a novel isoquinolone compound. As melatonin receptor activation inhibits cAMP production, any suppression in the expression of luciferase leads to a decrease in enzymatic activities and a reduction in the amount of luminescence signal generated.
The luciferase assay, a reporter gene assay, was performed to confirm the ability of the invention to activate the melatonin receptors. Prior to the assay, HEK (human embryonic kidney) 293 cells are stably transfected with cAMP-responsive element-driven luciferase reporter gene (293-pCREluc) and cDNAs encoding MT1 or MT2 receptors. The cells are then exposed to the novel isoquinolone compounds, after which the substrate luciferin is added and the resulting luminescence measured.
Prior to the assay human embryonic kidney (HEK) 293 cells (CRL-1573, ATCC) is maintained at 37° C. in minimum essential medium (MEM) supplemented with 10% fetal bovine serum (FBS), 100 units/ml penicillin and 100 μg/ml streptomycin in a humidified atmosphere containing 5% CO2. Human embryonic kidney 293 cells stably transfected with cAMP-responsive element-driven luciferase reporter gene (293-pCREluc) are established and maintained in growth medium supplemented with 300 μg/ml G418 sulphate.
For luciferase assays, HEK-293 cells stably expressing pCRE-luciferase are seeded at a density of 15,000 cells/well into 96 well plates. Transfection is carried out using Lipofectamine Plus® reagent at 0.2 μl of both Plus and lipofectamine reagents with 50 ng cDNAs encoding MT1 or MT2 receptors per well. After a 3 hour transfection period at 37° C., 50 μl of DMEM with 20% fetal calf serum (FCS) is added into the wells and the plate is incubated at 37° C. for 48 h prior to 24 hour serum starvation. […]
Cells are harvested by replacing medium in the well by 50 μl luciferase lysis buffer. The Berthold microplate luminometer is maintained at 25° C. throughout the assay. Injector M connected to an empty tube and P connected to the drug tube are set to inject 25 μl of luciferin into appropriate wells. A 1.6 second delay time followed by a 1 second measuring time period is assigned to injector M, whereas injector P is measured for 10 seconds after luciferase substrate is introduced into the well. Results are expressed as relative luminescent units (RLU). Where indicated, agonist-induced activity is expressed as a percentage of the RLU obtained with forskolin.

MT2 receptor [2] = target: T1, MT2 receptor; experiment: cAMP assay, MT2; type: cell-based; set-up: expressed in transfected cells; host or cells: COS-7 (monkey kidney fibroblast); conditions: inhibition of forskolin-stimulated cAMP production; MT2-expressing cells
MT2 receptor [3] = target: T1, MT2 receptor; experiment: Competitive [3H]melatonin binding assay, MT2; set-up: expressed in transfected cells; conditions: displacement of 1 nM [3H]melatonin
Description: Competitive ligand binding assays were performed to examine the receptor binding characteristics of the novel isoquinolone compounds. The assay measures the ability of the novel isoquinolone compounds to bind and displace the radiolabelled endogenous ligand, [^3H]melatonin. Increasing concentrations of the novel compounds are added to displace the [^3H]melatonin-bound to MT1 or MT2 receptor-expressing cells.
4. Competitive Binding Assay
The ability of compounds to bind to MT1 and/or MT2 receptors is determined using radioligand binding assays. […] 48 hours following transfection, cells are harvested in binding buffer (50 mM Tris-HCl, 2 mM MgCl2, 1 mM EDTA, pH 7.4). 100,000 cells are incubated with 1 nM [^3H] melatonin (specific activity: 83 Ci/mmol; GE Healthcare) and appropriate concentrations (0.1 nM to 1 μM) of unlabelled ligands in a total volume of 100 μl in 96-well plates (PerkinElmer Life And Analytical Sciences, Inc., Boston, Mass.) for 2 hours at room temperature. Reactions are terminated by rapid filtration through a 96-well cell harvester onto 96-well GF/C filter mats. Filters are washed with 500 μl of ice-cold binding buffer, dried and sealed in a polyethylene bag with 3.5 ml of scintillation fluid and counted for tritium in a Microbeta Jet scintillation counter. […] Data are analyzed by nonlinear least-squares regression using GraphPad Prism 3.02.

[4] = HEK-293 cells, log value, negative, NSB = No significant binding
[5] = unit inferred, read-out: Binding Assay MT2 IC50

Row | Compound | CRE-Luc Assay MT2 % Inh ± SEM of 1 μM Fsk (MT2 receptor [1]) | cAMP Assay MT2 % Inh (MT2 receptor [2]) | Binding Assay MT2 logIC50 ± SEM (MT2 receptor [3]; [4]) | IC50 (MT2 receptor [3]; [5]) | IC50 (MT2 receptor [3]; HEK-293 cells, log value, negative, NSB = No significant binding, read-out: Binding Assay MT2 logIC50 ± SEM (converted))
1 | Cn1ccc2cc(OC(=O)c3ccccc3)c(OC(=O)c3ccccc3)cc2c1=O [IS039] | 69.8 ± 7.2% | 4.2 ± 6.8% | NSB | – | –
2 | COc1cc(COc2cc3ccn(C)c(=O)c3cc2OC)cc(OC)c1 [IS042] | 71.3 ± 8.8% | 58.7 ± 5.8% | NSB | – | –
3 | COc1cccc(COc2cc3ccn(C)c(=O)c3cc2OC)c1 [IS044] | 73.9 ± 12.4% | 62.5 ± 4.0% | – | – | –
4 | COc1cccc(COc2cc3c(=O)n(C)ccc3cc2OC)c1 [IS521] | 70.2 ± 9.2% | 63.2 ± 4.9% | – | 0.145 µM | –
5 | COc1cc(COc2cc3c(=O)n(C)ccc3cc2OC)cc(OC)c1 [IS523] | 71.6 ± 16.3% | 50.8 ± 9.1% | NSB | – | –
6 | COc1cc2ccn(C)c(=O)c2cc1OCc1ccc(C(C)(C)C)cc1 [IS526] | 17.8 ± 4.7% | −63.9 ± 59.2% | NSB | – | –
7 | COc1cccc(COc2c(OC)ccc3c(=O)n(C)ccc23)c1 [IS527] | 61.0 ± 9.3% | 51.4 ± 12.1% | – | 0.108 µM | 0.117 µM
8 | COc1cc(COc2c(OC)ccc3c(=O)n(C)ccc23)cc(OC)c1 [IS528] | 60.8 ± 8.5% | 49.4 ± 13.2% | NSB | – | –
9 | COc1ccc2c(=O)n(C)ccc2c1OCc1ccc(C)cc1 [IS529] | 61.3 ± 13.1% | 37.7 ± 11.9% | NSB | – | –
